Holding throughout (type): binding
Assay [1] has as its target T1, GALR2 (Homo sapiens, UniProt O43603).
T1 construct: purchased Promega (in-house HiBiT-GPCR construct library, NanoBRET)
T1 sequence (O43603 1-387): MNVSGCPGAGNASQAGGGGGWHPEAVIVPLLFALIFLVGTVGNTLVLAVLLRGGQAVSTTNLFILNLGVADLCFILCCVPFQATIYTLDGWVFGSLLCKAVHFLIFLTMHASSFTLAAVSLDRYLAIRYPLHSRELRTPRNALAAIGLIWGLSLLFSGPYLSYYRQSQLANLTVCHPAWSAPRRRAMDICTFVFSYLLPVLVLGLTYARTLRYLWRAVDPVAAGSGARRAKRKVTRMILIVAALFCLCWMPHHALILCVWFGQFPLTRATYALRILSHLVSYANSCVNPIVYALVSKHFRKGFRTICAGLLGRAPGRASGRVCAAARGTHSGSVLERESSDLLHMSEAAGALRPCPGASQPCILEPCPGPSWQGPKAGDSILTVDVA
The assay can be described thus: NanoBRET screen HiBiT-GALR2 in HEK293. On the procedure: (§1) Each tracer candidate was screened across the entire library of HiBiT-GPCR constructs using NanoBRET as the detection modality. As depicted in Figure 4A, the specificity of interactions was evaluated through decrease in BRET due to competitive displacement of a bound tracer by excess parental compound. Each tracer was analyzed for binding to each HiBiT-GPCR fusion in the absence and in the presence of competing parental compound. Briefly, HEK293 cells were transfected with HiBiT-GPCR constructs diluted into promoterless DNA to reduce expression and maximize translocation to the cell surface. Each tracer candidate was then screened at concentrations of 1 μM and 0.1 μM across cells expressing these fusions. Cells were treated for 1.5 h with tracer either alone or in the presence of 20 μM competing parental compound (i.e., control). BRET was measured upon addition of purified LgBiT and subsequent complementation with HiBiT genetically fused to a GPCR. The specificity of interactions was assessed through a decrease in BRET signal due to competitive displacement of the bound tracer. To further gauge the robustness of these interactions, the fold response over the control (i.e., BRETtracer/BRETcontrol) was calculated. We chose a 1.5-fold response, which translates to ≥7-fold signal over noise as the minimal threshold required to score an interaction as positive. […]. Below we highlight the screening results obtained for our exemplary fluorescent tracers based on Clozapine, Amitriptyline and AZD1283.
(§2) HiBiT-GPCR DNA constructs were diluted in 10 mM Tris pH 8 to a final concentration of 0.01 μg/μL, arrayed in 96-well plates and stored at −20 °C. For transfection, HEK293 cells were suspended in Opti-MEM (without phenol red) supplemented with 2% fetal bovine serum (Seradigm) and 100 units/mL penicillin–streptomycin (Gibco) at a final concentration of 220,000 cells/mL and dispensed into white 96-well plates at 90 μL/well. Subsequent transfections and screens were carried using an Agilent Bravo Automated Liquid Handling Platform. First, the 96-well HiBiT DNA arrays were diluted 25-fold in Opti-MEM (without serum or phenol red) to a final concentration of 0.0004 μg/μL and 20 μL of the diluted DNAs were transferred into new 96-well plates. Next, promoterless carrier DNA (1 μg/μL) was diluted 25-fold (0.04 μg/μL) and then dispensed into the diluted arrays at 20 μL/well. Following brief mixing, Viafect transfection reagent (Promega) diluted 16-fold into Opti-MEM was dispensed into the plates at 40 μL/well. After mixing by pipetting, plates were incubated for 10 min on the pipetting station deck. The DNA-transfection reagent complexes were then added to plates containing cells. To facilitate the screen, 10 μL of DNA-transfection reagent complexes were added in duplicates to the top 4 and bottom 4 rows, resulting in two identical 48-well arrays per plate. Plates with transfected cells were incubated for 18–20 h at 37 °C/5% CO2. A screen of each tracer across the entire library using two different concentrations requires duplicate plates of transfected cells. Depending on the number of tracers being screened, transfections can be scaled up using the same ratios. The next day, for each tracer, four 20× screening solutions in tracer dilution buffer (Promega) were prepared: two duplicates at final concentration of 20 μM and two duplicates at a final concentration of 2 μM. A competing unmodified compound was added to one of each duplicate at a final concentration of 400 μM. The four resulting solutions were diluted 4-fold in Opti-MEM without serum or phenol red to generate 5× solutions (5 µM and 0.5 µM tracer +/− 100 μM competing compound). To screen the library, a BioTek MultiFlo FX liquid dispenser was used to dispense 22.5 µL of tracer solution to the top 4 rows and 22.5 µL tracer + competing compound solution to the 4 bottom rows. Plates were briefly mixed on an orbital shaker and incubated for 1.5 h at room temperature. […]
(In general: Bioluminescence resonance energy transfer reports proximity on the nanometre scale.)

Assay [2] addresses T2, FZD1 (Homo sapiens, UniProt Q9UP38).
T2 construct: purchased Promega (in-house HiBiT-GPCR construct library, NanoBRET)
The assay can be described thus: NanoBRET screen HiBiT-FZD1 in HEK293. On the procedure:
as §1, §2

Assay [3] has as its target T3, NTSR1 (Homo sapiens, UniProt P30989).
T3 construct: purchased Promega (in-house HiBiT-GPCR construct library, NanoBRET)
Kind of assay: NanoBRET screen HiBiT-NTSR1 in HEK293. The protocol:
as §1, §2

The target of assay [4] is T4, LGR4 (Homo sapiens, UniProt Q9BXB1).
T4 construct: purchased Promega (in-house HiBiT-GPCR construct library, NanoBRET)
T4 sequence (Q9BXB1 25-951): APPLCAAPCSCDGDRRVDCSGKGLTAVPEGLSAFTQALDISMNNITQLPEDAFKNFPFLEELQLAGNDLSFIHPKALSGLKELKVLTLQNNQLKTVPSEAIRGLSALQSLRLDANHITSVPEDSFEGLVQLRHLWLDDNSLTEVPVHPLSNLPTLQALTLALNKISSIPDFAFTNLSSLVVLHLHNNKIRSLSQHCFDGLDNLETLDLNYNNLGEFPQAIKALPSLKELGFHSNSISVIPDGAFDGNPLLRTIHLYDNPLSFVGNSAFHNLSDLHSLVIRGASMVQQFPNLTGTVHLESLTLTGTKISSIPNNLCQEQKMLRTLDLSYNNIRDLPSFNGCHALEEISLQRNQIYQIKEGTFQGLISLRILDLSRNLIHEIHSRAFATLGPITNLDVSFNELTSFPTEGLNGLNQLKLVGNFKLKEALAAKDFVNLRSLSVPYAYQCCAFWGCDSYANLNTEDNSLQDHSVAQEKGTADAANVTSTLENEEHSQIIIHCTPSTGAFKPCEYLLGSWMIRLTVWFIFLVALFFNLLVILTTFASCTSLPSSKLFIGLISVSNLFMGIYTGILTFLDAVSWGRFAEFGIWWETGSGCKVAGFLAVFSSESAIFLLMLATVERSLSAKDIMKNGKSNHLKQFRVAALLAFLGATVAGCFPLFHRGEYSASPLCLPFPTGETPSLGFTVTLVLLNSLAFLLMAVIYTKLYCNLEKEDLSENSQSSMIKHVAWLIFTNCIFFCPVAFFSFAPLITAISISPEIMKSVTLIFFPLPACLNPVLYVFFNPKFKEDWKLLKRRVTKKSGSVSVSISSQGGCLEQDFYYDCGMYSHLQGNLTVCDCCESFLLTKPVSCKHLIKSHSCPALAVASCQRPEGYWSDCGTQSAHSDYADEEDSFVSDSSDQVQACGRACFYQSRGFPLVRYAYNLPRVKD
The assay can be described thus: NanoBRET screen HiBiT-LGR4 in HEK293. The protocol: as §1, §2

T2 sequence (Q9UP38 70-647): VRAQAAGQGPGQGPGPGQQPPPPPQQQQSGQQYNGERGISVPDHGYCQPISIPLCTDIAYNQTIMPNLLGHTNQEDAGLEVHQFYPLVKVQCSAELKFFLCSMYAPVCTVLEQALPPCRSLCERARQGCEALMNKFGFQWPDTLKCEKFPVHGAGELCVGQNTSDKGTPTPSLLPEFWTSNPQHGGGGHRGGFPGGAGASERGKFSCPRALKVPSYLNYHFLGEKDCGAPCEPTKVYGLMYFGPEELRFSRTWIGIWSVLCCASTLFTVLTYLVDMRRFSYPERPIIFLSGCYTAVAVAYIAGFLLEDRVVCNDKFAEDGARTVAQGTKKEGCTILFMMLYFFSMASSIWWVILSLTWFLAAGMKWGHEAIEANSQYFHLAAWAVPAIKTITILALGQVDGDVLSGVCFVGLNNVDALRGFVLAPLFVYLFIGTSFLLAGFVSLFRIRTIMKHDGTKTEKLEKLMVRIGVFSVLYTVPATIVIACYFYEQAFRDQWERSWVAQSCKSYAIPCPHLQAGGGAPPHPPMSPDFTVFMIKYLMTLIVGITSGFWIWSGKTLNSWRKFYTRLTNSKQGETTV
T3 sequence (P30989 whole entry): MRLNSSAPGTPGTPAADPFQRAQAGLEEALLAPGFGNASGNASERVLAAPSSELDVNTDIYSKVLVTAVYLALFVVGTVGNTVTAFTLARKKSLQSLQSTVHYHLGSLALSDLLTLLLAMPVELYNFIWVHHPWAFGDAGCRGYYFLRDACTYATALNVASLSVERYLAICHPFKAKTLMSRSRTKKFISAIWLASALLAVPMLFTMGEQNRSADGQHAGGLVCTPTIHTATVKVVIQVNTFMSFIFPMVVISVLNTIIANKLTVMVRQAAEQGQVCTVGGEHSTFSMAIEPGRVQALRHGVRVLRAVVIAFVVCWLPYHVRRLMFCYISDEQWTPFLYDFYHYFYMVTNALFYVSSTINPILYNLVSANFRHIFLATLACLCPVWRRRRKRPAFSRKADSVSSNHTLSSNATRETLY

For `O=C(CCc1ccc2n1[B-](F)(F)[N+]1=C(c3ccc[nH]3)C=CC1=C2)NCc1ccc(C(=O)NCCOCCOCCNCC(O)COc2cccc3ccccc23)cc1` (stereo not drawn) [Propranolol-3-NB590], the “NanoBRET Fold Response” value is on record as 1.00 in assay [1] (GALR2, 0.1μM); 0.99 in assay [1] (GALR2, 1μM); 0.97 in assay [2] (FZD1, 0.1μM); 0.98 in assay [2] (FZD1, 1μM); 1.06 in assay [3] (NTSR1, 0.1μM); 1.01 in assay [3] (NTSR1, 1μM). The “NanoBRET Fold Response” value in assay [4] (LGR4, 0.1μM) was found to be 0.97; in assay [4] (LGR4, 1μM) it was 1.02.

In the case of `COc1ccc2c(n1)c(CCNC(C)=O)cn2CCNC(=O)CCc1ccc2n1[B-](F)(F)[N+]1=C(c3ccc[nH]3)C=CC1=C2` [Azamelatonin-1-NB590], the “NanoBRET Fold Response” value is listed as 0.91 in assay [1] (0.1μM tracer); 1.23 in assay [1] (1μM tracer); 1.10 in assay [2] (0.1μM tracer); 1.10 in assay [2] (1μM tracer); 1.05 in assay [3] (0.1μM tracer); 0.99 in assay [3] (1μM tracer). For the same compound, the results for the “NanoBRET Fold Response” value in assay [4] (0.1μM tracer) and in assay [4] (1μM tracer) were 1.20 and 0.99, respectively.

Consider `O=C(CCOCCOCCOCCOCCNC(=O)CCc1ccc2n1[B-](F)(F)[N+]1=C(c3ccc[nH]3)C=CC1=C2)NCCCN1CCN(C2=Nc3ccccc3Oc3ccc(Cl)cc32)CC1` [Loxapine-a-2-NB590], for which the “NanoBRET Fold Response” value in assay [1] (GALR2, tracer 0.1μM) worked out at 1.09; in assay [1] (GALR2, tracer 1μM) it was 1.12; in assay [2] (FZD1, tracer 0.1μM), 1.17; in assay [2] (FZD1, tracer 1μM), 1.03; in assay [3] (NTSR1, tracer 0.1μM) it was 0.99; in assay [3] (NTSR1, tracer 1μM), 1.08. Further, the “NanoBRET Fold Response” value is 0.97 in assay [4] (LGR4, tracer 0.1μM) and 1.04 in assay [4] (LGR4, tracer 1μM).

As for `COc1ccccc1N1CCN(CCCCN2C(=O)c3ccc(CNC(=O)CCOCCOCCOCCOCCNC(=O)CCc4ccc5n4[B-](F)(F)[N+]4=C(c6ccc[nH]6)C=CC4=C5)cc3C2=O)CC1` [NAN-190-2-NB590], the “NanoBRET Fold Response” value worked out at 1.00 in assay [1] (GALR2, tracer 0.1μM); 0.99 in assay [1] (GALR2, tracer 1μM); 0.99 in assay [2] (FZD1, tracer 0.1μM); 1.06 in assay [2] (FZD1, tracer 1μM); 0.97 in assay [3] (NTSR1, tracer 0.1μM); 1.09 in assay [4] (LGR4, tracer 0.1μM). For the same compound, the “NanoBRET Fold Response” value in assay [4] (LGR4, tracer 1μM) stood at 0.99.

Turning to `CC(C)N(CC[C@H](c1ccccc1)c1cc(CCNC(=O)c2ccc(CNC(=O)CCc3ccc4n3[B-](F)(F)[N+]3=C(c5ccc[nH]5)C=CC3=C4)cc2)ccc1O)C(C)C` [Tolterodine-BZ-NB590], the “NanoBRET Fold Response” value is 0.99 in assay [1] (GALR2, tracer 0.1μM); 1.08 in assay [1] (GALR2, tracer 1μM); 1.04 in assay [2] (FZD1, tracer 0.1μM); 0.95 in assay [2] (FZD1, tracer 1μM); 1.02 in assay [3] (NTSR1, tracer 0.1μM); 1.03 in assay [3] (NTSR1, tracer 1μM). For the same compound, the “NanoBRET Fold Response” value in assay [4] (LGR4, tracer 0.1μM) amounted to 1.02; in assay [4] (LGR4, tracer 1μM) it was 1.02.

As to `O=C(CCc1ccc2n1[B-](F)(F)[N+]1=C(c3ccc[nH]3)C=CC1=C2)NCCOCCOCCNC(=O)OCCOCCN1CCN(C2=Nc3ccccc3Sc3ccccc32)CC1` [Quetiapine-a-2-NB590], the “NanoBRET Fold Response” value in assay [1] (GALR2, tracer 0.1μM) is recorded as 1.01; in assay [1] (GALR2, tracer 1μM), 0.83; in assay [2] (FZD1, tracer 0.1μM), 1.14; in assay [2] (FZD1, tracer 1μM), 0.96; in assay [3] (NTSR1, tracer 0.1μM) it was 1.03; in assay [3] (NTSR1, tracer 1μM), 0.89. Besides, the “NanoBRET Fold Response” value amounted to 1.00 in assay [4] (LGR4, tracer 0.1μM) and 1.05 in assay [4] (LGR4, tracer 1μM).

Regarding `CN1CCN(C2=Nc3cc(Cl)ccc3Nc3ccc(CNC(=O)CCOCCOCCOCCOCCNC(=O)CCc4ccc5n4[B-](F)(F)[N+]4=C(c6ccc[nH]6)C=CC4=C5)cc32)CC1` [Clozapine-b-2-NB590], the “NanoBRET Fold Response” value in assay [1] (GALR2, 0.1μM tracer) was 0.93; in assay [1] (GALR2, 1μM tracer), 0.99; in assay [2] (FZD1, 0.1μM tracer), 1.00; in assay [2] (FZD1, 1μM tracer), 0.99; in assay [3] (NTSR1, 0.1μM tracer), 1.00; in assay [3] (NTSR1, 1μM tracer), 1.01. In addition, the “NanoBRET Fold Response” value is recorded as 1.00 in assay [4] (LGR4, 0.1μM tracer) and 1.04 in assay [4] (LGR4, 1μM tracer).

Consider `CC(C)N(CC[C@H](c1ccccc1)c1cc(CCNC(=O)CCOCCOCCOCCOCCNC(=O)CCc2ccc3n2[B-](F)(F)[N+]2=C(c4ccc[nH]4)C=CC2=C3)ccc1O)C(C)C` [Tolterodine-2-NB590], for which the “NanoBRET Fold Response” value in assay [1] (GALR2, tracer 0.1μM) worked out at 0.97; in assay [1] (GALR2, tracer 1μM), 1.09; in assay [2] (FZD1, tracer 0.1μM) it was 0.97; in assay [2] (FZD1, tracer 1μM), 0.97; in assay [3] (NTSR1, tracer 0.1μM), 1.09; in assay [3] (NTSR1, tracer 1μM) it was 0.90. The “NanoBRET Fold Response” value in assay [4] (LGR4, tracer 0.1μM) was found to be 1.12; in assay [4] (LGR4, tracer 1μM), 1.24.

These data come from publication PMC8151276, “An Integrated Approach toward NanoBRET Tracers for Analysis of GPCR Ligand Engagement” (Molecules, 2021).
